The subject of test [1] is DNCB-induced atopic dermatitis mice. The test can be described thus: DNCB-induced dermatitis mouse model, skin thickness. It counts as in vivo, female BALB/C mice. Particulars: for reduction of the thickness of the dermis compared with Crisaborole / reduction of the thickness of the epidermis compared with Crisaborole: statistical comparison vs Crisaborole group; for Epidermal thickness / Dermis thickness: 50 mg/mL, 100 μL applied to back skin, 11 times once a day, Mean ± SD, n = 8; for Epidermal thickness: model 137.76, blank 48.93; for Dermis thickness: model 500.71, blank 194.70. How it is done:
After female BALB/C mice are selected, each weighing 18-22 g, for animal adaptive breeding for 7 days, these are randomly divided into a blank group, a model group, a positive drug Crisaborole group, a hexadecadrol group, and compound groups, with 8 in each group. Except for the mice in the blank group, the remaining mice are applied with 100 μL of a 1% DNCB solution [acetone: olive oil=4:1 (V/V)] on the skin of the back of the shaved mice, and applied continuously for 3 days once a day. Then, dosing treatment starts 4 days after the mice are housed, and the test drug is applied to the back of each group of animals, wherein animals in the blank group and the model group are applied with a corresponding solvent, the positive drug Crisaborole group and hexadecadrol group are applied with 50 mg/mL of a corresponding drug, and the administration group is applied with 50 mg/mL of a corresponding compound, with 100 μL for each mouse; after application of 4 hours, 0.5% DNCB solution is applied for secondary challenge, and repeated administration and challenge treatment are performed 11 times, once a day. 24 hours after the last administration, the animals are sacrificed, and the back skins (1×0.4 cm^2) are taken and fixed in 10% formalin buffer to make pathological sections and perform HE staining; then, the epidermal and dermal layers are observed under a 100× […], and 5 areas are selected for detection of and recording the skin thickness, and then the average value is taken to represent the final thicknesses of the epidermal layer and dermal layer, respectively.

The target in the next test is T1, PDE4A enzyme (Homo sapiens, UniProt P27815).
T1 construct: GST (N); host or cells: Sf9 insect cells (baculovirus)
T1 sequence (P27815 whole entry, species assumed): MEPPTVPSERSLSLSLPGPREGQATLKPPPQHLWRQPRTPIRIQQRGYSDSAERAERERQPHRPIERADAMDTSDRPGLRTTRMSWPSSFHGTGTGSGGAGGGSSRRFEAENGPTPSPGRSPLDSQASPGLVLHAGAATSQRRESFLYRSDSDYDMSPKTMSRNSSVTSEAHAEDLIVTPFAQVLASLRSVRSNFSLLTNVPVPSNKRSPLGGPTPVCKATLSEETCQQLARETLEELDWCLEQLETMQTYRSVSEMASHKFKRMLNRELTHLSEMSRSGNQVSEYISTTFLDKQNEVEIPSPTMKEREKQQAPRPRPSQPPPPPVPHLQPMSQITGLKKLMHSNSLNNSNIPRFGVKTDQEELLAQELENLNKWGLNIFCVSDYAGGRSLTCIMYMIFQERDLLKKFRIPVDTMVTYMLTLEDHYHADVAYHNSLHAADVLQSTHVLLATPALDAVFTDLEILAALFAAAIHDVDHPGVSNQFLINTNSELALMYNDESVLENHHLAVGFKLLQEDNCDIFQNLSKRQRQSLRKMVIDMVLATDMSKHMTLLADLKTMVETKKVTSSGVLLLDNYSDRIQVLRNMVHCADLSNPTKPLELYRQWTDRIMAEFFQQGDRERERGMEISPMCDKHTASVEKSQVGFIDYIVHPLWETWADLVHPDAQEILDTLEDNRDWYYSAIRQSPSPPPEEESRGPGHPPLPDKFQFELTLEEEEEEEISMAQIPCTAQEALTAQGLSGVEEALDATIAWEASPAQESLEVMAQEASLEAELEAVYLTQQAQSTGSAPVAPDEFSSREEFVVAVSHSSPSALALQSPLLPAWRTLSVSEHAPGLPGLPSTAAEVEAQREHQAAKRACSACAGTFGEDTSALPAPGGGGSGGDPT
The test can be described thus: Inhibition of the activity of PDE4A enzyme (fluorescence polarization, Transcreener AMP2/GMP2). It counts as biochemical. Particulars: 1 h, mean ± spread; for remaining activity at 0.01 µM: 0.01 μM compound; for remaining activity at 0.1 µM: 0.1 μM compound; for remaining activity at 1 µM: 1 μM compound. How it is done: The PDE4A enzyme expressed from baculovirus is labeled with N-terminal GST from Sf9 insect cells. A specified PDE4A enzyme and 1 mM cAMP are added to the newly prepared pH 7.5 Tris buffer, the enzyme solution is transferred into reaction wells, and the compound is sonicated in DMSO and then added to the enzyme solution for culturing for 10 minutes at room temperature; the substrate solution is poured into the reaction wells to initiate the reaction and cultured at room temperature for 1 hour, and a detection tracer (AMP2/GMP2 AlexaFluor 633 Tracer) and an antibody (Transcreener® AMP2/GMP2 Antibody) are added to stop the reaction for culturing for 90 minutes with gentle mixing. […]
On the technique in general: Polarisation of emitted light reports the rotation of a fluorescent probe.

Where [2] appears, read: 50 mg/mL topical, statistical comparison vs Y5 group.

Marks after values point to notes of the source that are not given here.

Consider `OB1OCc2cc(Oc3cc(C(F)(F)F)c4cc(C(F)(F)F)ccc4n3)ccc21` [PD-17], for which, in test [1] (50 mg/mL topical), the “reduction of the thickness of the dermis compared with Crisaborole” value is recorded as “significantly reduce the thickness of the dermis of dermatitis mice (P≤0.01)” and the “reduction of the thickness of the epidermis compared with Crisaborole” value is reported as “significantly reduce the thickness of the epidermis (P≤0.01)”. In addition, the “reduction of the thickness of the dermis compared with the compound Y5” value in test [1] (setting [2]) is listed as “significantly reduce the thickness of the dermis of dermatitis mice (P≤0.01)”. In test [1], the Epidermal thickness came out at 80.76 ± 10.51 μm and the Dermis thickness is recorded as 380.74 ± 20.15 ^a a μm. On PDE4A enzyme, this molecule displayed a remaining activity at 0.01 µM of 4.17 ± 0.99%, a remaining activity at 0.1 µM of 1.89 ± 0.6% and a remaining activity at 1 µM of 0.77 ± 0.39%.

In test [1], `COC(=O)c1ccc2nc(Oc3ccc4c(c3)COB4O)cc(C(F)(F)F)c2c1` [PD-18] registered an Epidermal thickness of 90.35 ± 11.20 μm and a Dermis thickness of 436.16 ± 35.42 μm. Further, on PDE4A enzyme, the remaining activity at 0.01 µM worked out at 1.52 ± 0.44%, the remaining activity at 0.1 µM is 0.46 ± 0.35% and the remaining activity at 1 µM was determined as 0.13 ± 0.06%.

`CC(=O)c1ccc2nc(Oc3ccc4c(c3)COB4O)cc(C(F)(F)F)c2c1` [PD-19]: in test [1], the Epidermal thickness is 96.05 ± 9.75 μm and the Dermis thickness is given as 441.12 ± 30.17 μm. For the same molecule, at PDE4A enzyme, the remaining activity at 0.01 µM turned out to be 4.22 ± 0.86%, the remaining activity at 0.1 µM is 1.56 ± 0.48% and the remaining activity at 1 µM amounted to 0.54 ± 0.47%.

Regarding `COC(=O)c1ccc2nc(Oc3ccc4c(c3)COB4O)cc(F)c2c1` [PD-20], in test [1], the Epidermal thickness amounted to 98.74 ± 10.55 μm and the Dermis thickness came out at 438.14 ± 29.71 μm. Moreover, on PDE4A enzyme, the remaining activity at 0.01 µM came out at 6.13 ± 0.93%, the remaining activity at 0.1 µM was 3.64 ± 0.48% and the remaining activity at 1 µM was 1.78 ± 0.5%.

For the molecule `OB1OCc2cc(Oc3cc(F)c4cc(C(F)(F)F)ccc4n3)ccc21` [PD-21], in test [1] (50 mg/mL topical), the “reduction of the thickness of the dermis compared with Crisaborole” value is reported as “significantly reduce the thickness of the dermis of dermatitis mice (P≤0.01)” and the “reduction of the thickness of the epidermis compared with Crisaborole” value was “significantly reduce the thickness of the epidermis (P≤0.01)”. For the same molecule, in test [1] (setting [2]), the “reduction of the thickness of the dermis compared with the compound Y5” value is listed as “significantly reduce the thickness of the dermis of dermatitis mice (P≤0.05)” and the “reduction of the thickness of the epidermis compared with the compound Y5” value is “significantly reduce the thickness of the epidermis (P≤0.01)”. In test [1], the Epidermal thickness is given as 70.62 ± 7.12 ^aa μm and the Dermis thickness is 383.34 ± 24.40**^##a μm. On PDE4A enzyme, this molecule had a remaining activity at 0.01 µM of 1.64 ± 0.55%, a remaining activity at 0.1 µM of 0.33 ± 0.23% and a remaining activity at 1 µM of 0.28 ± 0.14%.

In test [1], `N#Cc1ccc2nc(Oc3ccc4c(c3)COB4O)cc(F)c2c1` [PD-22] displayed an Epidermal thickness of 103.45 ± 11.74 μm and a Dermis thickness of 447.77 ± 33.37 μm. Besides, on PDE4A enzyme, the remaining activity at 0.01 µM was determined as 7.16 ± 1.04%, the remaining activity at 0.1 µM came to 3.06 ± 0.27% and the remaining activity at 1 µM was 1.78 ± 0.63%.

In the case of `OB1OCc2cc(Oc3ccc4cc(C(F)(F)F)ccc4c3)ccc21` [PD-23], in test [1], the Epidermal thickness amounted to 97.34 ± 8.36 μm and the Dermis thickness is reported as 435.56 ± 27.08 μm. At PDE4A enzyme, this molecule yielded a remaining activity at 0.01 µM of 9.26 ± 0.73%, a remaining activity at 0.1 µM of 4.51 ± 0.94% and a remaining activity at 1 µM of 2.45 ± 0.76%.

Turning to `COC(=O)c1cccc2cc(Oc3ccc4c(c3)COB4O)ccc12` [PD-24], in test [1] (50 mg/mL topical), the “reduction of the thickness of the dermis compared with Crisaborole” value is listed as “significantly reduce the thickness of the dermis of dermatitis mice (P≤0.05)” and the “reduction of the thickness of the epidermis compared with Crisaborole” value is reported as “significantly reduce the thickness of the epidermis of the dermatitis mice (P≤0.05)”. For the same molecule, in test [1], the Epidermal thickness amounted to 91.17 ± 9.03 μm and the Dermis thickness is given as 420.33 ± 24.75 μm. On PDE4A enzyme, this molecule came in with a remaining activity at 0.01 µM of 9.17 ± 1%, a remaining activity at 0.1 µM of 7.31 ± 1.16% and a remaining activity at 1 µM of 2.64 ± 0.56%.

In the case of `N#Cc1ccc2cc(Oc3ccc4c(c3)COB4O)ccc2c1` [PD-25], in test [1] (50 mg/mL topical), the “reduction of the thickness of the dermis compared with Crisaborole” value was “significantly reduce the thickness of the dermis of dermatitis mice (P≤0.05)” and the “reduction of the thickness of the epidermis compared with Crisaborole” value is “significantly reduce the thickness of the epidermis of the dermatitis mice (P≤0.05)”. In test [1], the Epidermal thickness came out at 87.77 ± 10.58 μm and the Dermis thickness was 412.42 ± 26.74 μm. On PDE4A enzyme, the remaining activity at 0.01 µM was 7.17 ± 0.64%, the remaining activity at 0.1 µM was determined as 1.95 ± 1.18% and the remaining activity at 1 µM amounted to 2.27 ± 0.74%.

Turning to `N#Cc1ccc2nc(Cl)cc(Oc3ccc4c(c3)COB4O)c2c1` [PD-26], in test [1] (50 mg/mL topical), the “reduction of the thickness of the dermis compared with Crisaborole” value is given as “significantly reduce the thickness of the dermis of dermatitis mice (P≤0.01)” and the “reduction of the thickness of the epidermis compared with Crisaborole” value is recorded as “significantly reduce the thickness of the epidermis of the dermatitis mice (P≤0.05)”. In addition, in test [1], the Epidermal thickness stood at 83.94 ± 7.63 μm and the Dermis thickness was 408.97 ± 23.06 μm. Besides, at PDE4A enzyme, the remaining activity at 0.01 µM was found to be 12.8 ± 1.82%, the remaining activity at 0.1 µM worked out at 7.23 ± 1.83% and the remaining activity at 1 µM came to 2.04 ± 0.24%.

`COC(=O)c1ccc2nc(Cl)cc(Oc3ccc4c(c3)COB4O)c2c1` [PD-27]: in test [1], the Epidermal thickness was determined as 97.73 ± 8.95 μm and the Dermis thickness is listed as 430.05 ± 27.90 μm. Besides, on PDE4A enzyme, the remaining activity at 0.01 µM came to 12.9 ± 1.86%, the remaining activity at 0.1 µM stood at 9.49 ± 1.59% and the remaining activity at 1 µM turned out to be 2.69 ± 1.77%.

Turning to `OB1OCc2cc(Oc3cc(Cl)nc4ccc(C(F)(F)F)cc34)ccc21` [PD-28], in test [1], the Epidermal thickness turned out to be 70.51 ± 12.45 μm and the Dermis thickness was 352.69 ± 30.77**^aa μm. On PDE4A enzyme, the remaining activity at 0.01 µM came to 9.14 ± 0.89%, the remaining activity at 0.1 µM came out at 4.42 ± 0.64% and the remaining activity at 1 µM is 2.1 ± 0.93%.

Broadly, the remaining activity is what remains of the control signal, in per cent. Low readings indicate little activity left, high ones much activity left.

These data come from patent US11161860B2, “Compound having effects of inhibiting phosphodiesterase 4, preparation method thereof and pharmaceutical use thereof” (Hefei Industrial Pharmaceutical Institute Co., Ltd., priority 2018, dated 2021).
